Laboratory results from patent publication EP3057951B1, “METHYLENE LINKED QUINOLINYL MODULATORS OF ROR-GAMMA-T” (Janssen Pharmaceutica NV, priority 2013, dated 2015).
Where “and” joins values, the source holds several entries; their conditions need not be identical. Equal values may be shown once. Where a name gives a salt, the structure may show the parent alone. Read-outs that look alike come from different tables or passages of the source.

How the values were obtained:
[1] = biological target: T1, wild type human RORγt ligand binding domain (RORyt LBD) (Homo sapiens, UniProt P51449); test: RORγt ThermoFluor assay (thermal shift, binding affinity KD)
T1 construct: His-tag (N); TurboTEV protease cleavage site (ENLYFQG) (N); made in house; host or cells: E. coli (pHIS1, modified pET vector)
T1 sequence (P51449 258-518): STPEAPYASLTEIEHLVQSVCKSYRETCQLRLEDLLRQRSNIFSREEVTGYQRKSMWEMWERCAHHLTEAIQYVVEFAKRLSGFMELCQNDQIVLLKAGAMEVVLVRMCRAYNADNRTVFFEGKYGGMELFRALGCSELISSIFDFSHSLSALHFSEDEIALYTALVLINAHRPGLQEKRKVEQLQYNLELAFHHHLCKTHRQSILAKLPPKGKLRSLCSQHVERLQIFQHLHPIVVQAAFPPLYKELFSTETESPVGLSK

[2] = biological target: T2, wild type human RORγt LBD (Homo sapiens, UniProt P51449); test: RORγt (LBD) Reporter Assay (GAL4-luciferase, HEK293T cells); type: cell-based; settings: for RORγt (LBD) Reporter Assay, % inhibition @ 6 µM: 6 µM compound concentration; for inhibition at 6 µM: HEK-293T, read-out: RORγt (LBD) Reporter Assay, % inhibition @ 6 µM, 6 µM compound concentration
T2 construct: expressed in transfected cells; host or cells: HEK293T
T2 sequence (P51449 258-518): T1 sequence (P51449 258-518)

[3] = HEK293T cells, value after the comma with ∼, > or < could not be included in the average

Compound	Kd [1] [nM]	RORγt (LBD) Reporter Assay, % inhibition @ 6 µM ([2]; 6 µM) [%]	IC50 [2, 3]	RORγt (LBD) Reporter Assay, % inhibition @ 6 µM ([2]; HEK293T cells, 6 µM) [%]	IC50 ([2]; HEK293T cells) [nM]	inhibition at 6 µM [2] [%]	inhibition at 6 µM ([2]; HEK293T cells) [%]	RORγt (LBD) Reporter Assay, % inhibition @ 6 µM [2] [%]
Cn1cc(-c2nc3ccc(C(O)(c4ccc(C(F)(F)F)nc4)c4cncn4C)cc3c(C#N)c2Cc2ccccc2)cn1 (single isomer, unassigned) [Example 112c, 3-Benzyl-6-(hydroxy(1-methyl-1H-imidazol-5-yl)(6-(trifluoromethyl)pyridin-3-yl)methyl)-2-(1-methyl-1H-pyrazol-4-yl)quinoline-4-carbonitrile]	13000	71	~5000 nM					
Cc1ccc(C(O)(c2ccc3nc(N4CC(F)(F)C4)c(Cc4ccc(C(F)(F)F)cc4)c(Cl)c3c2)c2cnnn2C)c(C)n1 (single isomer, unassigned) [Example 148c, {4-Chloro-2-(3,3-difluoroazetidin-1-yl)-3-[4-(trifluoromethyl)benzyl]quinolin-6-yl}(2,6-dimethylpyridin-3-yl)(1-methyl-1H-1,2,3-triazol-5-yl)methanol]	0.39			98	~6			
CC(=O)N1CCC(C(O)(c2ccccc2)c2ccc3nc(Cl)c(Cc4cncnc4)c(OC(F)F)c3c2)CC1 (single isomer, unassigned) [Example 73b, 1-(4-((2-Chloro-4-(difluoromethoxy)-3-(pyrimidin-5-ylmethyl)quinolin-6-yl)(hydroxy)(phenyl)methyl)piperidin-1-yl)ethanone]	44		700 nM			35		
Cn1cc(-c2nc3ccc(C(O)(c4ccc(C(F)(F)F)nc4)c4cncn4C)cc3c(Cl)c2Cc2ccccc2)cn1 (single isomer, unassigned) [Example 111b, (3-Benzyl-4-chloro-2-(1-methyl-1H-pyrazol-4-yl)quinolin-6-yl)(1-methyl-1H-imidazol-5-yl)(6-(trifluoromethyl)pyridin-3-yl)methanol]	1400		~900 nM			99		
COc1nc2ccc(C(O)(c3ccc(C)nc3C)c3cncn3C)cc2c(Cl)c1Cc1ccc(C(F)(F)F)cc1 (single isomer, unassigned) [Example 88b, (4-Chloro-2-methoxy-3-(4-(trifluoromethyl)benzyl)quinolin-6-yl)(2,6-dimethylpyridin-3-yl)(1-methyl-1H-imidazol-5-yl)methanol]	480		740 nM			95		
Cn1cncc1C(O)(c1ccc(C(F)(F)F)nc1)c1ccc2nc(N3CC(F)(F)C3)c(Cc3ccc(-n4cccn4)cc3)c(Cl)c2c1 (stereo not drawn) [Example 135a, {4-Chloro-2-(3,3-difluoroazetidin-1-yl)-3-[4-(1H-pyrazol-1-yl)benzyl]quinolin-6-yl}(1-methyl-1H-imidazol-5-yl)[6-(trifluoromethyl)pyridin-3-yl] methanol.TFA]	36				270		97	
Cn1cncc1C(O)(c1ccc(C(F)(F)F)nc1)c1ccc2nc(-c3nccn3C)c(Cc3ccccc3)c(Cl)c2c1 (single isomer, unassigned) [Example 113b, (3-Benzyl-4-chloro-2-(1-methyl-1H-imidazol-2-yl)quinolin-6-yl)(1-methyl-1H-imidazol-5-yl)(6-(trifluoromethyl)pyridin-3-yl)methanol]	23000				~6000		58	
COc1nc2ccc(C(O)(c3cc(C)nc(C)c3)c3cnnn3C)cc2c(Cl)c1Cc1ccc(C(F)(F)F)cc1 (single isomer, unassigned) [Example 84c, (4-Chloro-2-methoxy-3-(4-(trifluoromethyl)benzyl)quinolin-6-yl)(2,6-dimethylpyridin-4-yl)(1-methyl-1H-1,2,3-triazol-5-yl)methanol]	0.003	100	6 nM					
COc1nc2ccc(C(O)(c3cnnn3C)c3cnnn3C)cc2c(Cl)c1Cc1ccc(C(F)(F)F)cc1 [Example 12, (4-Chloro-2-methoxy-3-(4-(trifluoromethyl)benzyl)quinolin-6-yl)bis(1-methyl-1H-1,2,3-triazol-5-yl)methanol]	0.7		3.1 nM			99		
COc1nc2ccc(C(O)(c3ccc(F)cc3)C3CCN(C(C)=O)CC3)cc2c(Cl)c1Cc1ccc(F)cc1 (single isomer, unassigned) [Example 51b, 1-(4-((4-Chloro-3-(4-fluorobenzyl)-2-methoxyquinolin-6-yl)(4-fluorophenyl)(hydroxy)methyl)piperidin-1-yl)ethanone]	3.9	46	170 nM					
COc1nc2ccc(C(O)(c3ccccc3)C3CCN(C(C)=O)CC3)cc2c(Cl)c1Cc1ccc(C(F)(F)F)cc1 (single isomer, unassigned) [Example 69b, 1-(4-((4-Chloro-2-methoxy-3-(4-(trifluoromethyl)benzyl)quinolin-6-yl)(hydroxy)(phenyl)methyl)piperidin-1-yl)ethanone]	1.8		36 nM			100		
COc1nc2ccc(C(O)(c3ccc(C)nc3C)C3CN(C(C)=O)C3)cc2c(Cl)c1Cc1ccc(C(F)(F)F)cc1 (racemic) [Example 87a, 1-(3-((4-Chloro-2-methoxy-3-(4-(trifluoromethyl)benzyl)quinolin-6-yl)(2,6-dimethylpyridin-3-yl)(hydroxy)methyl)azetidin-1-yl)ethanone]	1.8		6.8 nM			100		
COc1nc2ccc(C(O)(c3ccc(C)nc3C)C3CN(C(=O)OC(C)(C)C)C3)cc2c(Cl)c1Cc1ccc(C(F)(F)F)cc1 (stereo not drawn) [Example 125, tert-Butyl-3-((4-chloro-2-methoxy-3-(4-(trifluoromethyl)benzyl)quinolin-6-yl)(2,6-dimethylpyridin-3-yl)(hydroxy)methyl)azetidine-1-carboxylate]	9.4				290		100	
Cn1cncc1C(O)(c1ccc(C(F)(F)F)nc1)c1ccc2nc(N3CCCC3)c(Cc3ccc(-n4cccn4)cc3)c(Cl)c2c1 (single isomer, unassigned) [Example 145b, {4-Chloro-3-[4-(1H-pyrazol-1-yl)benzyl]-2-pyrrolidin-1-ylquinolin-6-yl}(1-methyl-1H-imidazol-5-yl)[6-(trifluoromethyl)pyridin-3-yl]methanol]	80				230		102	
COc1nc2ccc(C(O)(c3ccc(C)nc3C)c3cncn3C)cc2c(Cl)c1Cc1ccc(C(F)(F)F)cc1 (racemic) [Example 88a, (4-Chloro-2-methoxy-3-(4-(trifluoromethyl)benzyl)quinolin-6-yl)(2,6-dimethylpyridin-3-yl)(1-methyl-1H-imidazol-5-yl)methanol]	0.3		4.2 nM and ~20 nM			98		
Cc1ccc(C(O)(c2ccc3nc(Cl)c(Cc4ccc(C(F)(F)F)cc4)c(NC4CC4)c3c2)c2cnnn2C)c(C)n1 (stereo not drawn) [Example 144a, {2-Chloro-4-(cyclopropylamino)-3-[4-(trifluoromethyl)benzyl]quinolin-6-yl}(2,6-dimethylpyridin-3-yl)(1-methyl-1H-1,2,3-triazol-5-yl)methanol]	12				74		99	
Cn1cncc1C(O)(c1ccc(C(F)(F)F)nc1)c1ccc2nc(C#N)c(Cc3ccc(F)cc3)c(C#N)c2c1 (single isomer, unassigned) [Example 53b, 3-(4-Fluorobenzyl)-6-(hydroxy(1-methyl-1H-imidazol-5-yl)(6-(trifluoromethyl)pyridin-3-yl)methyl)quinoline-2,4-dicarbonitrile]	1.2	32	> 6000 nM					
3-((4-Chloro-6-((4-chlorophenyl)(hydroxy)(1-methyl-1H-imidazol-5-yl)methyl)-2-methoxyquinolin-3-yl)methyl)benzonitrile•TFA [Example 70]	120		430 nM					94
Cn1cncc1C(O)(c1ccc(C(F)(F)F)nc1)c1ccc2nc(C#N)c(Cc3ccc(F)cc3)c(C#N)c2c1 (single isomer, unassigned) [Example 53c, 3-(4-Fluorobenzyl)-6-(hydroxy(1-methyl-1H-imidazol-5-yl)(6-(trifluoromethyl)pyridin-3-yl)methyl)quinoline-2,4-dicarbonitrile]	48	74	680 nM					
COc1nc2ccc(C(O)(c3cncn3C)C3CCOCC3)cc2c(C#N)c1Cc1ccc(-n2cccn2)cc1 (stereo not drawn) [Example 2b, 3-(4-(1H-Pyrazol-1-yl)benzyl)-6-(hydroxy(1-methyl-1H-imidazol-5-yl)(tetrahydro-2H-pyran-4-yl)methyl)-2-methoxyquinoline-4-carbonitrile]	110		130 nM			101		
COc1nc2ccc(C(O)(c3ccccc3)C3CCN(C(C)=O)CC3)cc2c(Cl)c1Cc1ccc(F)cc1 (stereo not drawn) [Example 50, 1-(4-((4-Chloro-3-(4-fluorobenzyl)-2-methoxyquinolin-6-yl)(hydroxy)(phenyl)methyl)piperidin-1-yl)ethanone]	10		~4000 nM			82		
